In patent publication US20240374607A1, “MEDICAMENT FOR PREVENTING AND/OR TREATING DRY EYE” (Santen Pharmaceutical Co., Ltd., priority 2021, published 2024):

Experiments:
[1] = system: normal male cynomolgus monkeys; experiment: Tear film break-up time (TBUT) after single ocular instillation, Tests 1 and 2; conditions: for Extension of TBUT: 1% (w/v) ophthalmic solution, single ocular instillation, FIG. 2
Description: TBUT measurement tests were conducted for 10 normal male cynomolgus monkeys by partial crossover design of 5 monkeys per group. The test animals were given general anesthesia by intramuscular injection with ketamine hydrochloride (Ketalar for intramuscular injection 500 mg (registered trademark), Daiichi Sankyo Company, Limited.), and then were let their eyes closed. Then, TBUT was measured before and at 15, 30, and 60 minutes after ocular instillation of a vehicle or each ophthalmic solution (20 μL/eye) to the right eye. Specifically, 1% fluorescein solution (2 μL/eye) was instilled, and the time right after opening of the eyelids until breaking of the fluorescein layer (tear film) on the cornea was measured three times under a slit lamp, followed by calculation of the average. (N=5 eyes)
TBUT was measured in a similar manner to the method of Test 1. (N=4 or 5 eyes)

[2] = system: dry-eye model SD rat with exorbital lacrimal gland removed; experiment: Quantity of tears by Schirmer strip in dry-eye model, Tests 3 and 4; format: in vivo; conditions: for Incremental difference in Schirmer's test at 0.5 hours after ocular instillation / Incremental difference in Schirmer's test at 8 hours after ocular instillation: 5 μL/eye, difference from vehicle-instilled group
Description: A somnopentyl injection five-fold diluted with physiological saline was intraperitoneally administered to a normal male SD (Sprague-Dawley) rat by 2.5 mL/kg, and the rat was given general anesthesia, followed by keeping the anesthetized state by inhalation of about 1 to 3% isoflurane. Then, the skin on each check was incised to remove the exorbital lacrimal gland, followed by suturation with a Michel suture clamp. In this test, an individual wherein reduction of tears was confirmed after 13 weeks from the removal of exorbital lacrimal gland was included as the experimental animal.
Half an hour after treatment of general anesthesia, Schirmer strip (1 mm×17 mm) was inserted to conjunctival sac of the lower eyelid of a rat, and then after 1 minute of the insertion, the wet part of the Schirmer strip was measured in increments of 0.5 mm. (N=14 or 16 eyes)
The quantity of tears was measured in a similar manner to Test 3. (N=10 eyes)
The following Tables 1 and 2 show incremental differences (mm/min) in Schirmer's test between the vehicle-instilled group and the ophthalmic-solution-instilled groups at 0.5 and 8 hours, respectively, after ocular instillation according to the results of Test 3 and Test 4. The symbol “-” in Tables 1 and 2 means not-performed.

[3] = system: dry-eye model rat whose exorbital lacrimal gland is excised; experiment: Tear film break-up time in dry-eye model rat, Test 6; format: in vivo; conditions: concentration of 0.00001% or more, 5 μL/eye, 0.5 and 2 hours after ocular instillation; FIG. 5
Source text: A male SD rat was given general anesthesia, the skin on each […] cheek was incised under the anesthetized state, and then the exorbital lacrimal gland was excised to prepare a dry-eye model rat whose exorbital lacrimal gland is excised.
Untreated normal rats were assigned to an untreated group, and dry-eye model rats whose exorbital lacrimal gland is excised were assigned to a vehicle group and each ophthalmic solution group, each group consisting of 6 rats. For each group, TBUT measurement tests were conducted.

[4] = system: normal male cynomolgus monkeys; experiment: Intraocular pressure test, twice daily repeated instillation, Test 5; format: in vivo, cynomolgus monkey; conditions: 20 μL/eye twice daily, Day 1, 7 and 14, FIG. 4
Description: Specifically, one drop of 0.4% oxybuprocaine hydrochloride ophthalmic solution (trade name: Benoxil (registered trademark) ophthalmic solution 0.4%) was instilled to the right eye so as to provide surface anesthesia, and then the intraocular pressure was measured three times with Mentor tonometer (applanation), followed by calculation of the average. (N=6 eyes)

| Structure (SMILES) | Extension of TBUT [1] | Incremental difference in Schirmer's test at 0.5 hours after ocular instillation ([2]; 0.001% ophthalmic solution) [mm/min] | Incremental difference in Schirmer's test at 8 hours after ocular instillation ([2]; 0.001% ophthalmic solution, 8 hours) [mm/min] | Incremental difference in Schirmer's test at 0.5 hours after ocular instillation ([2]; 0.01% ophthalmic solution) [mm/min] | Incremental difference in Schirmer's test at 8 hours after ocular instillation ([2]; 0.01% ophthalmic solution, 8 hours) [mm/min] | Incremental difference in Schirmer's test at 0.5 hours after ocular instillation ([2]; 0.1% ophthalmic solution) [mm/min] | Incremental difference in Schirmer's test at 8 hours after ocular instillation ([2]; 0.1% ophthalmic solution, 8 hours) [mm/min] | Incremental difference in Schirmer's test at 0.5 hours after ocular instillation ([2]; 1% ophthalmic solution) [mm/min] | Incremental difference in Schirmer's test at 8 hours after ocular instillation ([2]; 1% ophthalmic solution, 8 hours) [mm/min] | TBUT-extending effect [3] | TBUT-extending effect ([1]; 0.0001, 0.001, 0.01% (w/v), single ocular instillation 20 μL/eye, 15, 30, 60 minutes, FIG. 1) | Effect on intraocular pressure ([4]; 0.01% ophthalmic solution) | Effect on intraocular pressure ([4]; 0.1% ophthalmic solution) | Lacrimal secretion at 8 hours after ocular instillation ([2]; 0.0001 to 0.01% instilled groups, 8 hours, FIG. 3) | Tear volumes at 16 hours after ocular instillation ([2]; 0.001 and 0.01% instilled groups, 16 hours, FIG. 3) | Lacrimal secretion ([2]; olodaterol-instilled groups 0.00001 to 0.01%, FIG. 3) |
| --- | --- | --- | --- | --- | --- | --- | --- | --- | --- | --- | --- | --- | --- | --- | --- | --- |
| CC(C)(C)NCC(O)c1cc(Cl)c(N)c(Cl)c1 (centres unmarked) [clenbuterol] | not confirmed |  |  |  |  |  |  |  |  |  |  |  |  |  |  |  |
| CC(Cc1ccc(O)cc1)NCC(O)c1cc(O)cc(O)c1 (centres unmarked) [fenoterol] | not confirmed | 1.8 | 0.0 | 4.8 | 0.2 | 6.1 | 0.9 | 3.6 | 1.1 |  |  |  |  |  |  |  |
| COc1ccc(CC(C)(C)NC[C@H](O)c2cc(O)cc3c2OCC(=O)N3)cc1 [olodaterol, 6-hydroxy-8-((1R)-1-hydroxy-2-{[2-(4-methoxyphenyl)-1,1-dimethylethyl]amino}&shy;ethyl)-2H-1,4-benzoxazin-3-(4H)-one] |  |  |  |  |  |  |  |  |  | TBUT-extending effect was confirmed | confirmed in a concentration-dependent manner | did not show increase and/or decrease the intraocular pressure | did not show increase and/or decrease the intraocular pressure | highly enhanced | increase of tear volumes was observed | lacrimal secretion was enhanced |
